Assay results published in ChEMBL document CHEMBL5236635, “Structure-Based Drug Design and Synthesis of Novel N-Aryl-2,4-bithiazole-2-amine CYP1B1-Selective Inhibitors in Overcoming Taxol Resistance in A549 Cells” (J Med Chem, 2022).
Values belong to the compound of their own block, whether it stands above or below them.

Legend:
Cytochrome P450 1A1 = target: T1, Cytochrome P450 1A1 (Homo sapiens, UniProt P04798); assay: Inhibition of recombinant human CYP1A1 using 7-ethyl-0-resorufin as substrate incubated for 30 mins in presence of NADPH by EROD assay
T1 sequence (P04798 whole entry): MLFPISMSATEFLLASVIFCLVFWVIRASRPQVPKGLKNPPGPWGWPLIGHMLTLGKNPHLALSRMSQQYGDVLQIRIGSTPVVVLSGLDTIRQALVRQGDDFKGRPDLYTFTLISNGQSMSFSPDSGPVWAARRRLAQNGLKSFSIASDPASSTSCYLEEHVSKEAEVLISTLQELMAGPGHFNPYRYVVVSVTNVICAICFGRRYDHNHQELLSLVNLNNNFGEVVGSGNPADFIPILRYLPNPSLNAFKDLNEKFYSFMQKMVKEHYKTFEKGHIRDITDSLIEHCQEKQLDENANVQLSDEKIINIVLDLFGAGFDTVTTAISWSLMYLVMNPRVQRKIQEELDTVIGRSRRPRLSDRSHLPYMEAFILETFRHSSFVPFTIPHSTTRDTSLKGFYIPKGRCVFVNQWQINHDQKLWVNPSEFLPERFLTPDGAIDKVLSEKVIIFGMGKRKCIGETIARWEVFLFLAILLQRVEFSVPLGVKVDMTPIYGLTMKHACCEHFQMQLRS

Cytochrome P450 1A2 = target: T2, Cytochrome P450 1A2 (Homo sapiens, UniProt P05177); assay: Inhibition of recombinant human CYP1A2 using 7-ethyl-0-resorufin as substrate incubated for 30 mins in presence of NADPH by EROD assay
T2 sequence (P05177 whole entry): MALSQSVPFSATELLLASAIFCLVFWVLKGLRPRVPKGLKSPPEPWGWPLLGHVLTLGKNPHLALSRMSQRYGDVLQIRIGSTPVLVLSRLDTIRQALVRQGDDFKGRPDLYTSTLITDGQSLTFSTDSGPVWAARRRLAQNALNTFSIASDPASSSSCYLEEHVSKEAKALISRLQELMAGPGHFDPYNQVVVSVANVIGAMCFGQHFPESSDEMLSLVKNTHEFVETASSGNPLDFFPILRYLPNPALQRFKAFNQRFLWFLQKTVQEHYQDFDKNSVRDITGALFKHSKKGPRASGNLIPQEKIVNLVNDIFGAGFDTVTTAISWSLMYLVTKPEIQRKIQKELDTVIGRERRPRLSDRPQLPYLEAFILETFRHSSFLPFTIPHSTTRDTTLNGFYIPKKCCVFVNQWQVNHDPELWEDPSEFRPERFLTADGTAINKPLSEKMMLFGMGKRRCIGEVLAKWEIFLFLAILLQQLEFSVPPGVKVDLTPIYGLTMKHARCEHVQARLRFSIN

CYP1A1 versus CYP1B1 = assay: Selectivity index, ratio of IC50 for inhibition of recombinant human CYP1A1 to IC50 for inhibition of recombinant human CYP1B1; settings: recombinant human CYP1A1 and recombinant human CYP1B1
CYP1A2 versus CYP1B1 = assay: Selectivity index, ratio of IC50 for inhibition of recombinant human CYP1A2 to IC50 for inhibition of recombinant human CYP1B1; settings: recombinant human CYP1A2 and recombinant human CYP1B1
Cytochrome P450 1B1 = target: T3, Cytochrome P450 1B1 (Homo sapiens, UniProt Q16678); assay: Inhibition of recombinant human CYP1B1 using 7-ethyl-0-resorufin as substrate incubated for 30 mins in presence of NADPH by EROD assay
T3 sequence (Q16678 whole entry): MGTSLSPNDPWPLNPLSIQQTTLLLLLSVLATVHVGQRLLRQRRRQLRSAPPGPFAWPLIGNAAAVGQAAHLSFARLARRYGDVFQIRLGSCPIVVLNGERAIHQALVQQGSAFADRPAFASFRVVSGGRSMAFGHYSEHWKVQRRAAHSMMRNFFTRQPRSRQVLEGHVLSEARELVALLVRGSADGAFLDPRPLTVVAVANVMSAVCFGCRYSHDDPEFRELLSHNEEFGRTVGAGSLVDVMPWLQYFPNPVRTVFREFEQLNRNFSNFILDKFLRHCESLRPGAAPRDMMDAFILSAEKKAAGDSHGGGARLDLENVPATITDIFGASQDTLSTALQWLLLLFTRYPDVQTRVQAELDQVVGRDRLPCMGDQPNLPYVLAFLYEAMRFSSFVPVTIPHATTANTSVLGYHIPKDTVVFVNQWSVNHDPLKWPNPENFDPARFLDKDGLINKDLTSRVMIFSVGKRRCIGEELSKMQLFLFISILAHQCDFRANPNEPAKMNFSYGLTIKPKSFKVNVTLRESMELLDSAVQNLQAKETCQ

CYP1B1 = target: T4, CYP1B1 (Homo sapiens, UniProt Q16678); assay: Inhibition of recombinant human CYP1B1 assessed as inhibition ratio at 100 nM using 7-ethyl-0-resorufin as substrate incubated for 30 mins in presence of NADPH by EROD assay relative to control; settings: recombinant human CYP1B1, probe 7-ethyl-0-resorufin
T4 sequence (Q16678 whole entry): T3 sequence (Q16678 whole entry)

A549 = assay: Inhibition of DMBA induced taxol resistance in human A549 cells; type: functional, cell-based; settings: dose 2.5-10 µM

SMILES: Fc1ccccc1-c1csc(-c2csc(Nc3cc(Cl)cc(Cl)c3)n2)n1
inhibition (A549): Dose-Dependent Effect

SMILES: COc1cc(Nc2nc(-c3nc(-c4ccccc4)c(-c4ccccc4)s3)cs2)cc(OC)c1
IC50 (Cytochrome P450 1A1): 524 nM | IC50 (Cytochrome P450 1A2): > 10000 nM | selectivity ratio (CYP1A1 versus CYP1B1): 6.08 | selectivity ratio (CYP1A2 versus CYP1B1): > 116 | IC50 (Cytochrome P450 1B1): 86.2 nM

SMILES: Clc1cc(Nc2nc(-c3nccs3)cs2)cc(Cl)c1Cl
IC50 (Cytochrome P450 1A1): 482 nM | IC50 (Cytochrome P450 1A2): 483 nM | selectivity ratio (CYP1A1 versus CYP1B1): 64.7 | selectivity ratio (CYP1A2 versus CYP1B1): 64.8 | IC50 (Cytochrome P450 1B1): 7.45 nM | inhibition at 0.5 h, 0.1 µM (CYP1B1): 100%

SMILES: Clc1cc(Cl)cc(Nc2nc(-c3nc(-c4cccnc4)cs3)cs2)c1
IC50 (Cytochrome P450 1A1): 387 nM | IC50 (Cytochrome P450 1A2): 227 nM | selectivity ratio (CYP1A1 versus CYP1B1): 11.7 | selectivity ratio (CYP1A2 versus CYP1B1): 6.85 | IC50 (Cytochrome P450 1B1): 33.1 nM

SMILES: COc1ccc(-c2csc(-c3csc(Nc4cccc(F)c4)n3)n2)cc1OC
IC50 (Cytochrome P450 1A1): 210 nM | IC50 (Cytochrome P450 1A2): 31.6 nM | selectivity ratio (CYP1A1 versus CYP1B1): 0.37 | selectivity ratio (CYP1A2 versus CYP1B1): 0.06 | IC50 (Cytochrome P450 1B1): 567 nM

SMILES: c1csc(-c2csc(Nc3ccc(N4CCOCC4)cc3)n2)n1
IC50 (Cytochrome P450 1A1): 994 nM | IC50 (Cytochrome P450 1A2): 1860 nM | selectivity ratio (CYP1A1 versus CYP1B1): 126 | selectivity ratio (CYP1A2 versus CYP1B1): 236 | IC50 (Cytochrome P450 1B1): 7.88 nM | inhibition at 0.5 h, 0.1 µM (CYP1B1): 87.7%

SMILES: Cc1sc(-c2csc(Nc3ccc(N4CCOCC4)cc3)n2)nc1-c1ccncc1
IC50 (Cytochrome P450 1A1): 276 nM | IC50 (Cytochrome P450 1A2): 1260 nM | selectivity ratio (CYP1A1 versus CYP1B1): 1.36 | selectivity ratio (CYP1A2 versus CYP1B1): 6.2 | IC50 (Cytochrome P450 1B1): 203 nM

SMILES: Clc1ccc(Nc2nc(-c3nccs3)cs2)cc1
IC50 (Cytochrome P450 1A1): 586 nM | IC50 (Cytochrome P450 1A2): 119 nM | selectivity ratio (CYP1A1 versus CYP1B1): 92.9 | selectivity ratio (CYP1A2 versus CYP1B1): 18.8 | IC50 (Cytochrome P450 1B1): 6.31 nM | inhibition at 0.5 h, 0.1 µM (CYP1B1): 90%

Further lines, with some results ahead:

IC50 (Cytochrome P450 1A1): 43.9 nM | IC50 (Cytochrome P450 1A2): 89 nM | IC50 (Cytochrome P450 1B1): 0.121 nM | inhibition at 0.5 h, 0.1 µM (CYP1B1): 90.7%
SMILES: COc1cc(Nc2nc(-c3nccs3)cs2)cc(OC)c1
selectivity ratio (CYP1A1 versus CYP1B1): 363 | selectivity ratio (CYP1A2 versus CYP1B1): 733

IC50 (Cytochrome P450 1A1): 70.4 nM | IC50 (Cytochrome P450 1A2): 48.5 nM | IC50 (Cytochrome P450 1B1): 4.96 nM | inhibition at 0.5 h, 0.1 µM (CYP1B1): 99.7%
SMILES: c1cn(Cc2ccc(Nc3nc(-c4nccs4)cs3)cc2)cn1
selectivity ratio (CYP1A1 versus CYP1B1): 14.1 | selectivity ratio (CYP1A2 versus CYP1B1): 9.7

IC50 (Cytochrome P450 1A1): 166 nM | IC50 (Cytochrome P450 1A2): 141 nM | IC50 (Cytochrome P450 1B1): 9.09 nM | inhibition at 0.5 h, 0.1 µM (CYP1B1): 92%
SMILES: c1csc(-c2csc(Nc3ccc(Cn4cncn4)cc3)n2)n1
selectivity ratio (CYP1A1 versus CYP1B1): 18.2 | selectivity ratio (CYP1A2 versus CYP1B1): 15.4

IC50 (Cytochrome P450 1A1): 93 nM | IC50 (Cytochrome P450 1A2): 78.5 nM | IC50 (Cytochrome P450 1B1): 9 nM | inhibition at 0.5 h, 0.1 µM (CYP1B1): 97.6%
SMILES: c1csc(-c2csc(Nc3ccc4c(c3)OCO4)n2)n1
selectivity ratio (CYP1A1 versus CYP1B1): 10.3 | selectivity ratio (CYP1A2 versus CYP1B1): 8.71

IC50 (Cytochrome P450 1A1): 169 nM | IC50 (Cytochrome P450 1A2): 1560 nM | IC50 (Cytochrome P450 1B1): 1620 nM
SMILES: Fc1ccc(-c2csc(-c3csc(Nc4ccc(N5CCOCC5)cc4)n3)n2)cc1
selectivity ratio (CYP1A1 versus CYP1B1): 0.1 | selectivity ratio (CYP1A2 versus CYP1B1): 0.97

IC50 (Cytochrome P450 1A1): 47.9 nM | IC50 (Cytochrome P450 1A2): 11700 nM | IC50 (Cytochrome P450 1B1): 12.9 nM
SMILES: c1ccc(-c2csc(-c3csc(Nc4ccc(N5CCOCC5)cc4)n3)n2)nc1
selectivity ratio (CYP1A1 versus CYP1B1): 3.71 | selectivity ratio (CYP1A2 versus CYP1B1): 905

IC50 (Cytochrome P450 1A1): 22.4 nM | IC50 (Cytochrome P450 1A2): 2550 nM | IC50 (Cytochrome P450 1B1): 15.9 nM
SMILES: c1cncc(-c2csc(-c3csc(Nc4ccc(N5CCOCC5)cc4)n3)n2)c1
selectivity ratio (CYP1A1 versus CYP1B1): 1.4 | selectivity ratio (CYP1A2 versus CYP1B1): 160

IC50 (Cytochrome P450 1A1): 178 nM | IC50 (Cytochrome P450 1A2): 55.7 nM | IC50 (Cytochrome P450 1B1): 1.76 nM | inhibition at 0.5 h, 0.1 µM (CYP1B1): 97.2%
SMILES: Clc1cc(Cl)cc(Nc2nc(-c3nccs3)cs2)c1
selectivity ratio (CYP1A1 versus CYP1B1): 101 | selectivity ratio (CYP1A2 versus CYP1B1): 31.5

IC50 (Cytochrome P450 1A1): 153 nM | IC50 (Cytochrome P450 1A2): 3450 nM | IC50 (Cytochrome P450 1B1): 155 nM
SMILES: CCc1sc(-c2csc(Nc3ccc(N4CCOCC4)cc3)n2)nc1-c1ccncc1
selectivity ratio (CYP1A1 versus CYP1B1): 0.99 | selectivity ratio (CYP1A2 versus CYP1B1): 22.3

IC50 (Cytochrome P450 1A1): 105 nM | IC50 (Cytochrome P450 1A2): 230 nM | IC50 (Cytochrome P450 1B1): 73.3 nM
SMILES: Cc1sc(-c2csc(Nc3cccc(F)c3)n2)nc1-c1ccncc1
selectivity ratio (CYP1A1 versus CYP1B1): 1.43 | selectivity ratio (CYP1A2 versus CYP1B1): 3.14

IC50 (Cytochrome P450 1A1): 99.9 nM | IC50 (Cytochrome P450 1A2): 227 nM | IC50 (Cytochrome P450 1B1): 29.5 nM
SMILES: CCc1sc(-c2csc(Nc3cc(Cl)cc(Cl)c3)n2)nc1-c1ccccc1
selectivity ratio (CYP1A1 versus CYP1B1): 3.39 | selectivity ratio (CYP1A2 versus CYP1B1): 7.69
